# Test results taken from patent US9604983B2, “Herbicidal 3-(2-benzyloxyphenyl)-2,4-dihydroxy-1,8-naphthyridine derivatives” (SYNGENTA LIMITED, priority 2013, dated 2017).
# Assays:
# Assay in all cases: Post-emergence efficacy, glasshouse pot test
# Type in all cases: in vivo
# Details in all cases: post-emergence application at 1000 g/ha; evaluated after 13 days; five point scale
# [1] = tested on: Setaria faberi (SETFA)
# Procedure: (§1) B1 Post-emergence Efficacy Seeds of a variety of test species are sown in standard soil in pots:—Solanum nigrum (SOLNI), Amaranthus retoflexus (AMARE), Setaria faberi (SETFA), Alopecurus myosuroides (ALOMY), Echinochloa crus-galli (ECHCG), Ipomoea hederacea (IPOHE). After 8 days cultivation (post-emergence) under controlled conditions in a glasshouse (at 24/16° C., day/night; 14 hours light; 65% humidity), the plants are sprayed with an aqueous spray solution derived from the formulation of the technical active ingredient in acetone/water (50:50) solution containing 0.5% Tween 20 (polyoxyethelyene sorbitan monolaurate, CAS RN 9005-64-5). Compounds are applied at 1000 g/ha. The test plants are then grown in a glasshouse under controlled conditions in a glasshouse (at 24/16° C., day/night; 14 hours light; 65% humidity) and watered twice daily. After 13 days, the test is evaluated for the percentage damage caused to the plant. The biological activities are shown below in Table 13, on a five point scale (5=80-100%; 4=60-79%; 3=40-59%; 2=20-39%; 1=0-19%).
# [2] = tested on: Ipomoea hederacea (IPOHE)
# Procedure: as §1
# [3] = tested on: Echinochloa crus-galli (ECHCG)
# Procedure: as §1
# [4] = tested on: Solanum nigrum (SOLNI)
# Procedure: as §1
# [5] = tested on: Alopecurus myosuroides (ALOMY)
# Procedure: as §1
# [6] = tested on: Amaranthus retoflexus (AMARE)
# Procedure: as §1
Structure (SMILES),"percentage damage caused to the plant, SETFA [1]","percentage damage caused to the plant, IPOHE [2]","percentage damage caused to the plant, ECHCG [3]","percentage damage caused to the plant, SOLNI [4]","percentage damage caused to the plant, ALOMY [5]","percentage damage caused to the plant, AMARE [6]"
C#CCn1c(=O)c(-c2cccc(Cl)c2OCc2ccccc2)c(O)c2cccnc21 [Compound 10.001],1 (1=0-19%),5 (5=80-100%),1 (1=0-19%),5 (5=80-100%),1 (1=0-19%),4 (4=60-79%)
O=c1c(-c2c(Cl)ccc(Cl)c2OCc2ccccc2)c(O)c2nccnc2n1CC(F)F [Compound 4.008],5 (5=80-100%),5 (5=80-100%),5 (5=80-100%),5 (5=80-100%),4 (4=60-79%),5 (5=80-100%)
O=c1c(-c2c(Cl)ccc(Cl)c2OCc2ccc(C(F)(F)F)cc2)c(O)c2cccnc2n1CC(F)F [Compound 4.006],2 (2=20-39%),5 (5=80-100%),2 (2=20-39%),5 (5=80-100%),2 (2=20-39%),5 (5=80-100%)
C#CCn1c(=O)c(-c2c(Cl)ccc(Cl)c2OCc2ccc(C)cc2)c(OC(=O)C(C)C)c2cccnc21 [Compound 1.004],1 (1=0-19%),3 (3=40-59%),3 (3=40-59%),5 (5=80-100%),1 (1=0-19%),5 (5=80-100%)
O=c1c(-c2c(Cl)ccc(Cl)c2OCc2ccc(Cl)c(Cl)c2)c(O)c2cccnc2n1CC(F)F [Compound 4.005],1 (1=0-19%),5 (5=80-100%),1 (1=0-19%),5 (5=80-100%),1 (1=0-19%),5 (5=80-100%)
O=c1c(-c2c(Cl)ccc(Cl)c2OCc2ccc(Cl)cc2)c(O)c2cccnc2n1CC(F)F [Compound 4.003],1 (1=0-19%),5 (5=80-100%),2 (2=20-39%),5 (5=80-100%),1 (1=0-19%),5 (5=80-100%)
O=c1c(-c2c(Cl)ccc(Cl)c2OCc2ccccc2)c(O)c2cccnc2n1CC(F)F [Compound 4.001],1 (1=0-19%),5 (5=80-100%),4 (4=60-79%),5 (5=80-100%),4 (4=60-79%),5 (5=80-100%)
CC(C)C(=O)Oc1c(-c2c(Cl)ccc(Cl)c2OCc2ccc(Cl)cc2)c(=O)n(CC(F)F)c2ncccc12 [Compound 3.003],1 (1=0-19%),5 (5=80-100%),1 (1=0-19%),5 (5=80-100%),1 (1=0-19%),5 (5=80-100%)
